Data as given in patent US20180282323A1, “Mesoionic imidazole derivatives as insecticides” (BAYER CROPSCIENCE AKTIENGESELLSCHAFT, priority 2015, published 2018).
Like-named read-outs stand apart in the source and are kept apart here.

Assays:
[1] = test system: Myzus persicae; experiment: Myzus persicae oral test; type: in vivo; conditions: application rate 20 ppm, oral uptake through parafilm, after 5 days; for pest or weed control at 20 ppm: Myzus persicae, 120 h, read-out: efficacy
Procedure: Myzus persicae—Oral Test Solvent: 100 parts by weight of acetone
To produce an appropriate active ingredient formulation, 1 part by weight of active ingredient is dissolved with the stated parts by weight of solvent and made up with water until the desired concentration is attained.
50 μl of the active ingredient formulation are transferred into microtitre plates and made up to a final volume of 200 μl with 150 μl of IPL41 insect medium (33%+15% sugar). Subsequently, the plates are sealed with parafilm, which a mixed population of green peach aphids (Myzus persicae) within a second microtitre plate is able to puncture and imbibe the solution through it.
After 5 days, the efficacy in % is determined. 100% means that all the aphids have been killed; 0% means that no aphids have been killed.

[2] = log P by HPLC on reversed-phase column (EEC directive 79/831 Annex V.A8); type: physicochemical; conditions: for log p a): HPLC on reversed-phase column
Procedure: a) The determination of the [M+H]^+ by LC-MS in the acidic range was effected at pH 2.7, with acetonitrile (containing 0.1% formic acid) and water as eluents; linear gradient from 10% acetonitrile to 95% acetonitrile, instrument: Agilent 1100 LC system, Agilent MSD system, HTS PAL.
The log P values reported in the tables and preparation examples above were determined in accordance with EEC directive 79/831 Annex V.A8 by HPLC (High Performance Liquid Chromatography) using a reversed-phase column (C18). Temperature 43° C.

[3] = HPLC on reversed-phase column (footnote a)

| SMILES | efficacy [1] [%] | log p a) [2] | log p [2, 3] | further results |
| --- | --- | --- | --- | --- |
| Cc1ccc[n+]2c(C(=O)Nc3ccc(F)cc3)c([O-])n(Cc3ccc(Cl)nc3)c12 [Example I-1-219] | 100 | 2.9 |  |  |
| O=C(Nc1ccccc1F)c1c([O-])n(Cc2cnc(Cl)s2)c2cccc[n+]12 [Example I-1-286] | 100 | 2.95 |  |  |
| O=C(NC1CC1)c1c([O-])n(Cc2cncc(Cl)c2)c2cccc[n+]12 [Example I-1-195] | 90 |  | 1.52 |  |
| O=C(Cn1cnc(C(F)(F)F)c1)c1c([O-])n(Cc2cnc(Cl)s2)c2cccc[n+]12 [Example I-1-051] | 100 |  | 2 |  |
| COCC(=O)c1c([O-])n(Cc2cnc(Cl)s2)c2ccc(C)c[n+]12 [Example I-1-174] | 100 |  | 1.52 |  |
| CC(c1ccc(Cl)nc1)n1c([O-])c(C(=O)Nc2c(F)cccc2F)[n+]2ccccc12 (centres unmarked) [Example I-1-272] | 100 | 2.46 |  |  |
| CCS(=O)(=O)CC(=O)c1c([O-])n(Cc2cnc(Cl)s2)c2cccc[n+]12 [Example I-1-042, 1-[(2-chloro-1,3-thiazol-5-yl)methyl]-3-[(ethylsulphonyl)acetyl]-1H-imidazo[1,2-a]pyridin-4-ium-2-olate] |  |  |  | pest or weed control at 20 ppm [1]: 100%; chromatographic logP ([2]; reversed-phase C18 HPLC column, pH 2.7, HPLC on reversed-phase column (footnote a), read-out: log p): 1.38; chromatographic logP ([2]; reversed-phase C18 HPLC column, HPLC-MS, reversed-phase C18, 43° C., calibration with alkan-2-ones, read-out: log P): 1.38 |
| COC(=O)c1c([O-])n(Cc2ccc(F)nc2)c2c(C)ccc[n+]12 [Example I-1-214] | 100 | 1.21 |  |  |
| CSc1ccn(CC(=O)c2c([O-])n(Cc3cnc(Cl)s3)c3cccc[n+]23)n1 [Example I-1-052] | 100 |  | 1.94 |  |
| Cc1ccc[n+]2c(C(=O)Nc3ccccc3)c([O-])n(Cc3cnc(Cl)s3)c12 [Example I-1-211] | 90 | 3.1 |  |  |
| Cc1ccc[n+]2c(C(=O)NC3CC3)c([O-])n(Cc3ccc(F)nc3)c12 [Example I-1-222] | 100 | 1.58 |  |  |
| Cc1ccc[n+]2c(C(=O)NC3CC3)c([O-])n(C(C)c3ccc(Cl)nc3)c12 (racemic) [Example I-1-257] | 100 | 1.52 |  |  |
| CC(c1ccc(Cl)nc1)n1c([O-])c(C(=O)NC2(C#N)CC2)[n+]2ccccc12 (centres unmarked) [Example I-1-271] | 100 | 1.69 |  |  |
| Cc1ncc(Cn2c([O-])c(C(=O)NC3CC3)[n+]3cccc(C)c23)s1 [Example I-1-223] | 100 | 1.45 |  |  |
| O=C(Nc1ncccc1F)c1c([O-])n(Cc2ccc(Cl)nc2)c2cccc[n+]12 [Example I-1-317] | 100 | 1.49 |  |  |
| Cc1cnc(Cn2c([O-])c(C(=O)Nc3ccccc3)[n+]3ccccc23)cn1 [Example I-1-218] | 100 | 2.05 |  |  |
| COc1cccc(NC(=O)c2c([O-])n(Cc3ccc(Cl)nc3)c3cccc[n+]23)c1 [Example I-1-299] | 100 | 2.55 |  |  |
| Cc1cccc2n(Cc3cnc(Cl)s3)c([O-])c(C(=O)NC3CC3)[n+]12 [Example I-1-190] | 100 |  | 1.16 |  |
| O=C(CCl)c1c([O-])n(Cc2ccc(Cl)nc2)c2c(F)cc(F)c[n+]12 [Example I-1-110] | 100 |  | 1.96 |  |
| Cc1ccc[n+]2c(C(=O)Nc3ncccn3)c([O-])n(Cc3ccc(Cl)nc3)c12 [Example I-1-265] | 90 | 1.51 |  |  |
| Cc1ccc[n+]2c(C(=O)NCC(C)C)c([O-])n(Cc3ccc(Cl)nc3)c12 [Example I-1-191] | 90 |  | 2.33 |  |
| N#Cc1cnn(CC(=O)c2c([O-])n(Cc3ccc(Cl)nc3)c3cccc[n+]23)c1 [Example I-1-060] | 100 |  | 1.55 |  |
| Cc1ccc[n+]2c(C(=O)Nc3c(F)cccc3F)c([O-])n(Cc3cnc(Cl)s3)c12 [Example I-1-212] | 100 | 2.73 |  |  |
| O=C(COc1cccnc1)c1c([O-])n(Cc2cnc(Cl)s2)c2cccc[n+]12 [Example I-1-018] | 100 |  | 1 |  |
| Cc1cc[n+]2c(C(=O)CCl)c([O-])n(Cc3cnc(Cl)s3)c2c1 [Example I-1-126] | 90 |  | 1.96 |  |
| COCC(=O)c1c([O-])n(Cc2cnc(OC)s2)c2cc(Cl)cc[n+]12 [Example I-1-124] | 100 |  | 1.51 |  |

| SMILES | efficacy [1] [%] | log p a) [2] | log p [2, 3] | further results |
| --- | --- | --- | --- | --- |
| COCC(=O)c1c([O-])n(Cc2ccc(C(F)(F)F)nc2)c2cccc[n+]12 [Example I-1-180] | 100 |  | 1.49 |  |
| Cc1ccc[n+]2c(C(=O)Cn3cccn3)c([O-])n(Cc3cnc(Cl)s3)c12 [Example I-1-251] | 100 | 1.69 |  |  |
| O=C(CCl)c1c([O-])n(Cc2cnc(Cl)s2)c2scc[n+]12 [Example I-5-002] | 100 |  |  | log p^a) ([2]; Table 3; HPLC reversed-phase C18, 43° C.; footnote a) acidic range pH 2.7): 1.46 |
| Cc1ccc[n+]2c(C(=O)COC3CCCC3)c([O-])n(Cc3cnc(Cl)s3)c12 [Example I-1-302] | 100 | 2.45 |  |  |
| Cc1cccc2n(Cc3ccc(Cl)nc3)c([O-])c(C(=O)NC3CC3)[n+]12 [Example I-1-171] | 100 |  | 1.05 |  |
| CCCNC(=O)c1c([O-])n(C(C)c2ccc(Cl)nc2)c2cccc[n+]12 (centres unmarked) [Example I-1-249] | 100 | 2.02 |  |  |
| CCCOCC(=O)c1c([O-])n(Cc2cnc(Cl)s2)c2ccc(Cl)c[n+]12 [Example I-1-117] | 100 |  | 2.41 |  |
| O=C(CCl)c1c([O-])n(Cc2ccc(Cl)nc2)c2scc[n+]12 [Example I-5-001, 5-(Chloroacetyl)-7-[(6-chloropyridin-3-yl)methyl]-7H-imidazo[2,1-b][1,3]thiazol-4-ium-6-olate] |  |  |  | pest or weed control at 20 ppm [1]: 100%; chromatographic logP [2]: 1.33; chromatographic logP ([2]; pH 2.7): 1.33 |
| O=C(NC1CC1)c1c([O-])n(Cc2ccc(C(F)(F)F)nc2)c2cccc[n+]12 [Example I-1-200] | 90 | 1.87 |  |  |
| CCOCC(=O)c1c([O-])n(Cc2cncc(Cl)c2)c2cccc[n+]12 [Example I-1-177] | 100 |  | 1.37 |  |
| Cc1ccc[n+]2c(C(=O)NC3CC3)c([O-])n(C(C)c3ccc(Cl)nc3)c12 (racemic) [Example I-1-259] | 90 | 1.96 |  |  |
| CCOCC(=O)c1c([O-])n(Cc2ccc(Cl)nc2)c2cc(C(F)(F)F)cc[n+]12 [Example I-1-079] | 90 |  | 2.17 |  |
| COCC(=O)c1c([O-])n(Cc2cncc(Cl)c2)c2cccc[n+]12 [Example I-1-109] | 100 |  | 1.15 |  |
| CC(c1ccc(Cl)nc1)n1c([O-])c(C(=O)NCC(F)(F)F)[n+]2ccccc12 (centres unmarked) [Example I-1-241] | 100 | 2.2 |  |  |
| Cc1ccc2n(Cc3cnc(Cl)s3)c([O-])c(C(=O)CCl)[n+]2c1 [Example I-1-125] | 90 |  | 1.99 |  |
| O=C(CCl)c1c([O-])n(Cc2ccc(F)nc2)c2cccc[n+]12 [Example I-1-207] | 100 | 1.38 |  |  |
| O=C(NCC(F)(F)F)c1c([O-])n(Cc2ccc(Cl)nc2)c2cccc[n+]12 [Example I-1-312] | 100 | 1.98 |  |  |
| O=C(NC1CC1)c1c([O-])n(Cc2ccc(Cl)nc2)c2cccc[n+]12 [Example I-1-133] | 90 |  | 1.85 |  |
| C[S+]([O-])CC(=O)c1c([O-])n(Cc2cnc(Cl)s2)c2cccc[n+]12 (centres unmarked) [Example I-1-039] | 100 |  | 1.08 |  |
| CC(c1cnc(Cl)s1)n1c([O-])c(C(=O)NC2(C#N)CC2)[n+]2ccccc12 (centres unmarked) [Example I-1-289] | 100 | 1.86 |  |  |
| COCC(=O)c1c([O-])n(Cc2ccc(Cl)nc2)c2ccc(C)c[n+]12 [Example I-1-167] | 100 |  | 1.48 |  |
| CCOCC(=O)c1c([O-])n(Cc2cnc(Cl)s2)c2ccc(Cl)c[n+]12 [Example I-1-119] | 100 |  | 1.96 |  |
| Cc1ccc[n+]2c(C(=O)NC3CC3)c([O-])n(Cc3ccc(Cl)nc3)c12 [Example I-1-181] | 100 |  | 1.75 |  |
| Cc1cccc2n(Cc3ccc(Cl)nc3)c([O-])c(C(=O)CCl)[n+]12 [Example I-1-098] | 100 |  | 1.74 |  |
| COC(=O)c1c([O-])n(Cc2ccc(Cl)nc2)c2nccc[n+]12 [Example I-4-001, 1-[(6-Chloropyridin-3-yl)methyl]-3-(methoxycarbonyl)-1H-imidazo[1,2-a]pyrimidin-4-ium-2-olate] |  |  |  | pest or weed control at 20 ppm [1]: 100%; chromatographic logP [2]: 1.15; chromatographic logP ([2]; pH 2.7): 1.15 |
| COC(=O)c1c([O-])n(Cc2cnc(Cl)c(Cl)c2)c2cccc[n+]12 [Example I-1-199] | 100 | 1.66 |  |  |
